{"source": "paper PMC2953536", "about": "(Angewandte Chemie (International ed. in English), 2010)", "key": {"MMP-9": {"target": "MMP-9 (Homo sapiens, UniProt P14780)", "sequence (P14780 94-707, species assumed)": "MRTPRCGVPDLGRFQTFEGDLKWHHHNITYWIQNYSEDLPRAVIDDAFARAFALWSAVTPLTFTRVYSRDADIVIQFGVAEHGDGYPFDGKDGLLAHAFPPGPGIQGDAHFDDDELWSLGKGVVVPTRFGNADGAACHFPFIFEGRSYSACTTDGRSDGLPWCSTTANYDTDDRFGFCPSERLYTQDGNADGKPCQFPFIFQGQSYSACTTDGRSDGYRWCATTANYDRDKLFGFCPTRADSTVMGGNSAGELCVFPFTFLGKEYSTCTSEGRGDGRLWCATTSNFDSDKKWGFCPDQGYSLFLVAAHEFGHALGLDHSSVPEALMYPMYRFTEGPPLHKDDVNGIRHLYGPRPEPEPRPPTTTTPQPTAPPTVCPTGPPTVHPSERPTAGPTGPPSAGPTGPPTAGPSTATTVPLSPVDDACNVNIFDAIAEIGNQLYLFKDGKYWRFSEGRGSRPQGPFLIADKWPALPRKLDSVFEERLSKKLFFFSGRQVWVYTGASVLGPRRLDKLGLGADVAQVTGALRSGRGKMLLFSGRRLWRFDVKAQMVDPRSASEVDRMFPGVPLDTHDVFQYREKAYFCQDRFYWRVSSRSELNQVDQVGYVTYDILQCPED", "experiment": "Fluorescence-based MMP inhibition assay, MMP-9", "type": "biochemical", "settings": "inhibitor, MMP-9, fluorescence based assay, average of two experiments"}, "MMP-12": {"target": "MMP-12 (Homo sapiens, UniProt P39900)", "sequence (P39900 106-470, species assumed)": "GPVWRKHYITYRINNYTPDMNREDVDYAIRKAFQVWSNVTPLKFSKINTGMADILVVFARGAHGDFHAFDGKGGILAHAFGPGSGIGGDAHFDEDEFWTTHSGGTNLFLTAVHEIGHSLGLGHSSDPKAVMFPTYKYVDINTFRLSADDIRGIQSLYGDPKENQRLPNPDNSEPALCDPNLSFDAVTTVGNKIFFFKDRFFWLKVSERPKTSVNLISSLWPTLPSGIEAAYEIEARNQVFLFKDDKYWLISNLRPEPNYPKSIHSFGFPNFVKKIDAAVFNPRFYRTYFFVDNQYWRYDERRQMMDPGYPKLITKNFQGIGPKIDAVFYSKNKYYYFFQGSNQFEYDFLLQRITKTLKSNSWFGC", "experiment": "Fluorescence-based MMP inhibition assay, MMP-12", "type": "biochemical", "settings": "MMP-12, fluorescence based assay, average of two experiments"}}, "data": [{"smiles": "O=C(NCc1ccc(-c2ccccc2)cc1)c1cccc(=O)n1O", "note": "[1,2-HOPO-2]", "values": [{"measurement": "IC50", "setting": "MMP-9", "value": 6.1, "unit": "µM"}, {"measurement": "IC50", "setting": "MMP-12", "value": 0.053, "unit": "µM"}]}]}
